Experimental data taken from patent US20050090504A1, “Piperidinyl and piperazinyl compounds substituted with bicyclo-heterocyclylalkyl groups useful as CCR3 receptor antagonists” (priority 2003, published 2005).

Tests used:
CCR-3 receptor = target: T1, CCR-3 receptor (Homo sapiens, UniProt P51677); test: CCR-3 Receptor Binding Assay, inhibition of 125I eotaxin binding to CCR-3 L1.2 transfectant cells; settings: CCR-3 L1.2 transfected cells, 1 hour at rt., read-out: CCR3 Binding IC50
T1 construct: expressed in transfected cells; host or cells: L1.2 (murine pre-beta lymphoma line)
T1 sequence (P51677 1-355): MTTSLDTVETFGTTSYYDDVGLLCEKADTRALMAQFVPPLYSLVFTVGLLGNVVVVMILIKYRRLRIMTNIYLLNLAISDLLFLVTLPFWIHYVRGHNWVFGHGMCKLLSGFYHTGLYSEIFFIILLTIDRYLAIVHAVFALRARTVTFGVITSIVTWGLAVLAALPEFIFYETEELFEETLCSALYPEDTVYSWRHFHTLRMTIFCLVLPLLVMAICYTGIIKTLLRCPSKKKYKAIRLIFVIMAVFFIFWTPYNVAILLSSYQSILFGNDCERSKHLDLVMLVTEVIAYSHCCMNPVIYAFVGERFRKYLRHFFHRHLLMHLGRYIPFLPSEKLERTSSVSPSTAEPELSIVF
Protocol: The CCR-3 antagonistic activity of the compounds of the invention was determined by their ability to inhibit the binding of ^125 I eotaxin to CCR-3 L1.2 transfectant cells (see Ponath, P. D. et al., J. Exp. Med., Vol. 183, 2437-2448, (1996)).
The assay was performed in Costar 96-well polypropylene round bottom plates. Test compounds were dissolved in DMSO and then diluted with binding buffer (50 mM HEPES, 1 mM CaCl2, 5 mM MgCl2, 0.5% bovine serum albumin (BSA), 0.02% sodium azide, pH 7.24) such that the final DMSO concentration was 2%. 25 μl of the test solution or only buffer with DMSO (control samples) was added to each well, followed by the addition of 25 μl of ^125I-eotaxin ([…]) (NEX314, New England Nuclear, Boston, Mass.) and 1.5×10^5 of the CCR-3 L1.2 transfected cells in 25 μl binding buffer. The final reaction volume was 75 μl.
After incubating the reaction mixture for 1 hour at rt., the reaction was terminated by filtering the reaction mixture through polyethylenimine treated Packard Unifilter GF/C filter plate (Packard, Chicago, Ill.). The filters were washed four times with ice cold wash buffer containing 10 mm HEPES and 0.5M sodium chloride (pH 7.2) and dried at 65° C. for approximately 10 minutes. 25 μl/well of Microscint-20® scintillation fluid (Packard) was added and the radioactivity retained on the filters was determined by using the Packard TopCount®. […]

melting point [°C] | IC50 (CCR-3 receptor) [µM] | SMILES
155.3 to 156.9 |  | Cc1ccc2oc(NC(CN3CCN(Cc4ccc(Cl)c(Cl)c4)CC3)C(C)C)nc2c1 (stereo not drawn) [Example 9, {1-[4-(3,4-Dichloro-benzyl)-piperazin-1-ylmethyl]-2-methyl-propyl}-(5-methyl-benzooxazol-2-yl)-amine]
 | 0.15 | CC(C)(C)[C@H](CN1CCC(Cc2ccc(Cl)c(Cl)c2)CC1)Nc1nc2ccccc2o1 [Example 18, 1-[(R)-2-(benzooxazol-2-ylamino)-3,3-dimethyl-butyl]-4-(3,4-dichloro-benzyl)-piperidinium; chloride]
 | 0.97 | CC(C)C(CN1CCN(Cc2ccc(Cl)c(Cl)c2)CC1)Nc1nc2ccccc2o1 (stereo not drawn) [Example 28, 1-[2-(Benzooxazol-2-ylamino)-3-methyl-butyl]-4-(3,4-dichloro-benzyl)-piperazin-1-ium; chloride]
